Test results as given in patent publication US20210393606A1, “THERAPEUTIC AGENT FOR FRONTAL LOBE DYSFUNCTION” (KYOWA HAKKO KIRIN CO., LTD., priority 2015, published 2021).

What was measured:
[1] = tested on: NAC61-95-treated Slc:ICR mice (α-synucleinopathy model); experiment: Spontaneous alternation task (Y-maze) in NAC61-95-treated α-synucleinopathy model mice; format: in vivo, mouse; conditions: NAC61-95 mice
Method: (§1) By reference to articles (Science, 338, p. 949 (2012); Behavioral Brain Reexplore, 208, p. 274 (2010)), an animal model capable of confirming a treatment and/or prophylactic effect on α-synucleinopathy, for example, Lewy body disease (for example, cognitive impairment in Parkinson's disease, diffuse Lewy body disease, dementia with lewy bodies, movement disorder associated with Lewy body disease and the like) was generated as follows.
The cognitive function was evaluated using a spontaneous alternation task. The spontaneous alternation task is known as an evaluation system of cognitive function utilizing properties of animal to willingly explore a novel environment (Neuroscience and Biobehavioral Reviews 28, p. 497 (2004)). […] The motor function was evaluated by analyzing gait function in natural walk conditions using a gait analysis system. […]
Mice were brought into the experiment room on the previous day of test for habituation. […] Entry of all four limbs of a mouse into one arm was defined as entry into arm, and the order of entry of the mice into the arm was recorded. A behavior of continuous entry into all three different arms was defined as spontaneous alternation behavior, and the percentage of alternation behavior was calculated by the following calculation formula. […]

[2] = tested on: NAC61-95-treated Slc:ICR mice (α-synucleinopathy model); experiment: Gait analysis (CatWalk XT) in NAC61-95-treated α-synucleinopathy model mice; format: in vivo, mouse; conditions: NAC61-95 mice
Method: as §1
The cognitive function was evaluated using a spontaneous alternation task. The spontaneous alternation task is known as an evaluation system of cognitive function utilizing properties of animal to willingly explore a novel environment (Neuroscience and Biobehavioral Reviews 28, p. 497 (2004)). That is, if the animal remembers the arm previously entered in exploration in a Y-maze apparatus, the behavior of spontaneous entry into a different arm is expressed by an alternation behavior rate, and used as an index of cognitive function. The motor function was evaluated by analyzing gait function in natural walk conditions using a gait analysis system.
NAC61-95 (custom, Sigma) was dissolved in PBS to prepare 4 μg/μL NAC61-95 solution.
Under pentobarbital (Somnopentyl, Kyoritsuseiyaku, 50 mg/kg, i.p.) anesthesia, 5 μL of NAC61-95 solution was injected using a Hamilton syringe (10 μL) equipped with a double needle (27G, needle length 3 mm) into the right lateral cerebral ventricle of Slc:ICR mice (male, Japan SLC) over about 1 min, and stood for 1 min to induce cognitive impairment and/or movement disorder. The sham treatment group was injected with 5 μL of PBS.
A gait analysis system (CatWalk XT, ver. 9.1, Noldus) was used. The system was constituted of a walkway with pressure dependent luminescence glass and a light source, luminescence ceiling, highly sensitive highspeed camera and analysis software, and the gait was analyzed by digitizing the brightness of the light emitted by the pressure dependent luminescence glass in response to the pressure. The gait data was automatically recorded and analyzed by the analysis software only when the mice moved straight forward without stopping in the predetermined area on the walkway.
The mice were brought into the experiment room without light and habituated for not less than 1 hr. The mice were placed in the apparatus, and allowed to walk freely until 6 running data were obtained for each mouse. The earliest three analyzable running data were used, and mean was calculated. By reference to an article relating to movement disorder in Parkinson's disease animal model (Journal of Biomedical Science 17, p. 9 (2010)), a decrease in the maximum contact area (Total surface area of certain paw at the moment of maximum paw contact) and print area (total surface area of the paw print), as well as change in the gait pattern (sequence of contact of 4 paws) were used as indices of movement disorder.
At 60 min before the test, compound (I) (suspended in 0.5 w/v % aqueous MC solution, and prepared to 0.5 mL per 100 g body weight of mouse on the administration day) was orally administered at a dose of 0.1 mg/kg, or a vehicle (0.5 w/v % aqueous MC solution) free of the test compound was orally administered at 0.5 mL per 100 g body weight of mice on the administration day.

[3] = tested on: medial prefrontal dopaminergic terminal-lesioned rat; experiment: Object recognition test using medial prefrontal dopaminergic terminal-lesioned rat; format: in vivo; conditions: lesioned rats
Text: The object recognition test is known as an evaluation system of cognitive function utilizing properties of animal to willingly explore a new object (Behavioural Brain Research 31, p. 47 (1988)). An animal is placed in an apparatus containing two identical objects and allowed to freely explore (acquisition trial), after which one of the objects in the apparatus is changed to one having a different shape (novel object) and the animal is allowed to freely explore (test trial). […] In this test, such property is evaluated as an index of cognitive function.
CD(SD)IGS rat (male, Charles River) received Pentobarbital sodium salt (Tokyo Chemical Industry Co., Ltd., 30 mg/kg) intraperitoneally and fixed on a brain stereotaxis apparatus (SR-6, Narishige kagaku kikai kenkyusho) under anesthesia. Using a microinjection pump (CMA/100, Carnegie Medicine), dopaminergic neurotoxin, 6-hydroxidopamine hydrochloride (6-OHDA, Sigma-Aldrich) was injected over about 1 min at (1) 3.2 mm anterior, 0.8 mm left lateral and 3.0 mm ventral, (2) 3.2 mm anterior, 0.8 mm right lateral and 3.0 mm ventral, (3) 3.2 mm anterior, 0.8 mm left lateral and 5.0 mm ventral, (4) 3.2 mm anterior, 0.8 mm right lateral and 5.0 mm ventral, (5) 4.2 mm anterior, 0.8 mm left lateral and 4.0 mm ventral, and (6) 4.2 mm anterior, 0.8 mm right lateral and 4.0 mm ventral, each from the bregma suture of the rats to lesion dopaminergic terminals in the medial prefrontal cortex. 6-OHDA was prepared at a concentration of 4 μg/μL, injected at a flow rate of 1 μL/min over 1 min, and stood for 1 min. In the sham operated group, a stainless cannula was inserted into the same coordinates. […] The dosing volumes of pentobarbital sodium and desipramine hydrochloride were calculated at 1 and 5 mL/kg based on the body weight measured on the administration day. […]
To familiarize the rats with the experimenter, they were handled for 3 days before the test. […] The time spent in exploration (sniffing) each object of the rats in the test trial was measured, and the ratio (%) relative to the total exploration time was calculated. […]

[4] = tested on: SLC: ICR male mice injected with α-synuclein or NAC61-95; experiment: α-Synucleinopathy model (α-synuclein or NAC61-95 injected mice), behavioral pharmacological evaluation, Experimental Example 2; format: in vivo, mouse; conditions: appropriate dose, a few hours after administration; written in present tense, no data
Text: as §1, with “is generated.” for “was generated as follows.”
An appropriate dose of a solution of α-synuclein (rPeptide, S-100) or NAC61-95 (custom, Sigma) dissolved in phosphate buffered saline (PBS) is injected to the striatum or lateral cerebral ventricle of SLC: ICR male mice to induce cognitive impairment and/or movement disorder. After confirmation of the pathology induction, an appropriate dose of compound (I) is administered to the mice.

[5] = 0.1 mg/kg orally 60 min before test, mean±standard error
[6] = 0.3 mg/kg orally 60 min before test, 3 min test trial, mean±standard error

SMILES: Cc1ccc(C(=O)Nc2nc(-c3ccco3)c(C(=O)C3CCOCC3)s2)cn1 [compound (I)]
- alternation behavior (%) ([1]; 0.1 mg/kg orally 60 min before test, Y-maze 7 min, mean±standard error): 69.5 ± 2.4%
- alternation behavior compared to the vehicle administration group ([1]; 0.1 mg/kg orally, Student's t-test p<0.01): significantly high
- gait pattern AA ([2]; AA: right forepaw → right hindpaw → left forepaw → left hindpaw, 0.1 mg/kg orally, mean±standard error): 0.00 ± 0.00
- gait pattern AB ([2]; AB: right forepaw → left hindpaw → left forepaw → right hindpaw, 0.1 mg/kg orally, mean±standard error): 81.86 ± 4.25
- gait pattern CA ([2]; CA: right forepaw → left forepaw → right hindpaw → left hindpaw, 0.1 mg/kg orally, mean±standard error): 13.39 ± 4.00
- gait pattern CB ([2]; CB: right forepaw → left hindpaw → right hindpaw → left forepaw, 0.1 mg/kg orally, mean±standard error): 4.75 ± 1.79
- change of gait pattern compared to the vehicle administration group ([2]; 0.1 mg/kg orally): an increase in pattern AB and a decrease in pattern CB
- maximum contact area, left forepaw [2, 5]: 0.30 ± 0.02
- maximum contact area, left hindpaw [2, 5]: 0.31 ± 0.02
- maximum contact area, right forepaw [2, 5]: 0.29 ± 0.02
- maximum contact area, right hindpaw [2, 5]: 0.30 ± 0.02
- print area, left forepaw [2, 5]: 0.40 ± 0.02
- print area, left hindpaw [2, 5]: 0.38 ± 0.03
- print area, right forepaw [2, 5]: 0.39 ± 0.02
- print area, right hindpaw [2, 5]: 0.37 ± 0.03
- maximum contact area and gait area of the left hindpaw compared to the vehicle administration group ([2]; 0.1 mg/kg orally, p<0.05): significantly large
- maximum contact area and gait area of the right forepaw compared to the vehicle administration group ([2]; 0.1 mg/kg orally, p<0.1): tendency of the maximum contact area and gait area of the right forepaw being large
- ratio (%) of exploration time, familiar object [3, 6]: 34.97 ± 2.88%
- ratio (%) of exploration time, novel object [3, 6]: 65.03 ± 2.88%
- exploration time of the novel object compared with the familiar object ([3]; 0.3 mg/kg orally, paired t-test p<0.001): significantly longer
- pathology (cognitive impairment and/or movement disorder) by Y-maze, spontaneous motor activity, CATWALK [4]: Improvement of the pathology
